Test systems include HOP-62 NSCLC; IGROV1 ovarian; K-562 leukemia; KM12 colon; M14 melanoma; NCI-H522 lung; OVCAR-4 ovarian; SK-MEL-2 melanoma; SNB-19 CNS; UACC-62 melanoma.
What all share (assay): NCI anticancer screen, dose series, 48 h

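Method: 48-hour compound exposure of cells in 96-well plates, five concentrations, linear interpolation of endpoints. Definition used: TGI = concentration required for complete inhibition of growth.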

As to `C(=C(c1ccc(OC2CCCCO2)cc1)c1ccc(OC2CCCCO2)cc1)c1ccccc1` (stereo not given), the TGI is 2.3 µM in the experiment on HOP-62 NSCLC; 1.71 µM in the experiment on IGROV1 ovarian; 2.01 µM in the experiment on K-562 leukemia; 0.677 µM with KM12 colon; 2 µM in the experiment on M14 melanoma; 2.4 µM in the experiment on NCI-H522 lung. The TGI in the experiment with OVCAR-4 ovarian stood at 1.75 µM; in the experiment on SK-MEL-2 melanoma, 2.77 µM; in the experiment on SNB-19 CNS, 2.54 µM; with UACC-62 melanoma it was 1.98 µM.

As for `Cc1ccccc1OC(C)C(=O)NN1C(=O)CSC1c1ccccc1` (stereo not given), the TGI with HOP-62 NSCLC, with IGROV1 ovarian, with K-562 leukemia, in the experiment on KM12 colon, with M14 melanoma and in the experiment on NCI-H522 lung was above 100 µM each time. Besides, the TGI in the experiment on OVCAR-4 ovarian, in the experiment with SK-MEL-2 melanoma, with SNB-19 CNS and with UACC-62 melanoma was above 100 µM throughout.

On to `CC(=O)Oc1cccc2c1C(=O)CCCC2`, for which the TGI in the experiment on HOP-62 NSCLC, with IGROV1 ovarian, with K-562 leukemia, in the experiment with KM12 colon, in the experiment on M14 melanoma and in the experiment with NCI-H522 lung was above 100 µM each time. For the same compound, the TGI in the experiment with OVCAR-4 ovarian, in the experiment on SK-MEL-2 melanoma, in the experiment on SNB-19 CNS and in the experiment on UACC-62 melanoma was above 100 µM each time.

For the compound `COc1cc(S(=O)(=O)Nc2nc(-c3ccc(N4C(=O)C(CC(=O)O)SC4c4cccs4)cc3)cs2)ccc1Cl` (stereo not given), the TGI in the experiment on HOP-62 NSCLC is above 100 µM; in the experiment on IGROV1 ovarian it was 66 µM; in the experiment on K-562 leukemia, above 100 µM; in the experiment on KM12 colon, above 100 µM; in the experiment on M14 melanoma it was above 100 µM; with NCI-H522 lung, 37.1 µM. In addition, the TGI with OVCAR-4 ovarian is 66.4 µM; in the experiment with SK-MEL-2 melanoma, 69.7 µM; with SNB-19 CNS, above 100 µM; in the experiment on UACC-62 melanoma, 48.9 µM.

In the case of `Cc1cc(C)nc(NS(=O)(=O)c2ccc(NC(=O)c3ccc4nc5ccccc5c(Nc5ccc(S(N)(=O)=O)cc5)c4c3)cc2)n1`, the TGI with HOP-62 NSCLC, with IGROV1 ovarian, in the experiment with K-562 leukemia, with KM12 colon, with M14 melanoma and in the experiment with NCI-H522 lung was above 100 µM in each case. The TGI with OVCAR-4 ovarian, in the experiment on SK-MEL-2 melanoma, with SNB-19 CNS and in the experiment on UACC-62 melanoma was above 100 µM in each case.

In the case of `CC(=O)/C=C/C1=C(C)CCCC1(C)CC(C)C` (stereo not given), the TGI is above 100 µM with HOP-62 NSCLC; above 100 µM in the experiment with IGROV1 ovarian; 40.8 µM in the experiment with K-562 leukemia; above 100 µM in the experiment with KM12 colon; above 100 µM in the experiment on M14 melanoma; 57.8 µM in the experiment on NCI-H522 lung. The TGI with OVCAR-4 ovarian is above 100 µM; with SK-MEL-2 melanoma, 43.5 µM; with SNB-19 CNS, above 100 µM; with UACC-62 melanoma it was 87.3 µM.

Consider `Oc1ccc(Cc2cc(Cc3ccc(O)cc3)cc(Cc3ccc(O)cc3)c2)cc1`, for which the TGI with HOP-62 NSCLC, in the experiment on IGROV1 ovarian, in the experiment on K-562 leukemia, in the experiment with KM12 colon, in the experiment on M14 melanoma and in the experiment on NCI-H522 lung was above 50 µM throughout. Moreover, the TGI with OVCAR-4 ovarian, in the experiment with SK-MEL-2 melanoma, with SNB-19 CNS and with UACC-62 melanoma was above 50 µM in each case.

As to `O=[N+]([O-])c1ccc2[nH]nc(OCc3ccccc3Cl)c2c1`, the TGI in the experiment on HOP-62 NSCLC is above 100 µM; in the experiment with IGROV1 ovarian it was above 100 µM; in the experiment with K-562 leukemia, above 100 µM; in the experiment with KM12 colon, above 100 µM; in the experiment on M14 melanoma it was above 100 µM; in the experiment on NCI-H522 lung, 72.7 µM. Also, the TGI with OVCAR-4 ovarian is above 100 µM; in the experiment with SK-MEL-2 melanoma it was 90.6 µM; in the experiment on SNB-19 CNS it was above 100 µM; in the experiment on UACC-62 melanoma it was 88.8 µM.

In the case of `CCOC(=O)N1CCN(Cc2cc(=O)n3ccc(C)cc3n2)CC1`, the TGI in the experiment with HOP-62 NSCLC, with IGROV1 ovarian, with K-562 leukemia, with KM12 colon, with M14 melanoma and with NCI-H522 lung was above 100 µM throughout. Besides, the TGI in the experiment with OVCAR-4 ovarian, in the experiment with SK-MEL-2 melanoma, in the experiment with SNB-19 CNS and in the experiment with UACC-62 melanoma was above 100 µM in each case.

Regarding `CC(=O)Nn1c(=S)[nH]c2ccccc21`, the TGI in the experiment on HOP-62 NSCLC, with IGROV1 ovarian, in the experiment on K-562 leukemia, in the experiment with KM12 colon, with M14 melanoma and in the experiment on NCI-H522 lung was above 100 µM throughout. The TGI with OVCAR-4 ovarian, in the experiment on SK-MEL-2 melanoma, in the experiment with SNB-19 CNS and in the experiment on UACC-62 melanoma was above 100 µM throughout.

As for `CC(=O)Nc1nc(NC(C)=O)c2[nH]c(CO)nc2n1`, the TGI with HOP-62 NSCLC, in the experiment with IGROV1 ovarian, with K-562 leukemia, with KM12 colon, with M14 melanoma and in the experiment on NCI-H522 lung was above 100 µM each time. Besides, the TGI with OVCAR-4 ovarian, in the experiment on SK-MEL-2 melanoma, in the experiment on SNB-19 CNS and in the experiment with UACC-62 melanoma was above 100 µM each time.

Consider `COc1cccc(Nc2nc(-c3cccs3)nc3cc(OC)c(OC)cc23)c1`, for which the TGI was 62.7 µM with HOP-62 NSCLC; 69.3 µM in the experiment with IGROV1 ovarian; above 100 µM in the experiment with K-562 leukemia; 87.1 µM in the experiment with KM12 colon; 82.2 µM with M14 melanoma; 43.1 µM in the experiment with NCI-H522 lung. Moreover, the TGI in the experiment with OVCAR-4 ovarian is above 100 µM; in the experiment with SK-MEL-2 melanoma, above 100 µM; in the experiment with SNB-19 CNS it was above 100 µM; with UACC-62 melanoma it was 39.8 µM.

For the compound `S=C(N/N=C(/c1ccccc1)c1ccccn1)N(Cc1ccccn1)Cc1ccccn1`, the TGI in the experiment with HOP-62 NSCLC is 3.17 µM; in the experiment with IGROV1 ovarian it was 2.03 µM; with K-562 leukemia it was above 100 µM; in the experiment with KM12 colon, 2.31 µM; in the experiment on M14 melanoma, 2.97 µM; in the experiment with NCI-H522 lung it was 4.5 µM. For the same compound, the TGI was 1.73 µM in the experiment with OVCAR-4 ovarian, 3.04 µM in the experiment on SK-MEL-2 melanoma, 2.26 µM in the experiment with SNB-19 CNS and 2.21 µM in the experiment with UACC-62 melanoma.
